From ChEMBL document CHEMBL1201862, “PubChem BioAssay data set” (2004)
The source made the active and inactive calls.

Columns and labels:
Hexokinase HKDC1 = target: T1, Hexokinase HKDC1 (Homo sapiens, UniProt Q2TB90); experiment: SAR analysis of small molecule inhibitors of hexokinase domain containing I (HKDC1). [Related pubchem assays (depositor defined):AID493160, AID493190]; type: functional
T1 sequence (Q2TB90 whole entry): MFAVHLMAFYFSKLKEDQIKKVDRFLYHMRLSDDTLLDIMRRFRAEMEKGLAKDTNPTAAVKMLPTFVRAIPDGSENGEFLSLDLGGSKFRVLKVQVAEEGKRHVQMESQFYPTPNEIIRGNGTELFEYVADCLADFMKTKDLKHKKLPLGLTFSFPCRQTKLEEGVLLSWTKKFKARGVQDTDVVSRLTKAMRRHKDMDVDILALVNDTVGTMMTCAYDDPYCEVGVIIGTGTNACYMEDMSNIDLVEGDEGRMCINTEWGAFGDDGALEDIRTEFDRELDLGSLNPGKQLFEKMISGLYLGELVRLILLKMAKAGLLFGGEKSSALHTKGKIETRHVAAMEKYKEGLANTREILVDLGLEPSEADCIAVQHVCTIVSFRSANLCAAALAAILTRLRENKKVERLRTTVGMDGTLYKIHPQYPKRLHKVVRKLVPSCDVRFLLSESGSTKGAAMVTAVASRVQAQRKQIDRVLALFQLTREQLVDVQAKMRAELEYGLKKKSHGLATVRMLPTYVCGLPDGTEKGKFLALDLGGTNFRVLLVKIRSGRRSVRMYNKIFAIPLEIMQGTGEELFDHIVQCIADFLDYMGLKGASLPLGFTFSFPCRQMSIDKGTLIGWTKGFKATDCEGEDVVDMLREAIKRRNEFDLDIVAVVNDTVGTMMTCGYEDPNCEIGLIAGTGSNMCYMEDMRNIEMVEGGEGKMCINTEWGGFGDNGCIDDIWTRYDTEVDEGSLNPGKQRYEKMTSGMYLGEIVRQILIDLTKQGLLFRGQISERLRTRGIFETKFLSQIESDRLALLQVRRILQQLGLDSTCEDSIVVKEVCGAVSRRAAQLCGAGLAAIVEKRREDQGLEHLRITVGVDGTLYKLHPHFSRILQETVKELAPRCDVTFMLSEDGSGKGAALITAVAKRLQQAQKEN

[1] = target: G-protein coupled receptor 55 (Homo sapiens, UniProt Q9Y2T6); experiment: GPR55 agonists via beta-arrestin recruitment, primary screen, imaging, U2OS cells, beta-arrestin-GFP redistribution (AID 1961); type: functional
G-protein coupled receptor 55, sequence (Q9Y2T6 whole entry, the tested form may be a part): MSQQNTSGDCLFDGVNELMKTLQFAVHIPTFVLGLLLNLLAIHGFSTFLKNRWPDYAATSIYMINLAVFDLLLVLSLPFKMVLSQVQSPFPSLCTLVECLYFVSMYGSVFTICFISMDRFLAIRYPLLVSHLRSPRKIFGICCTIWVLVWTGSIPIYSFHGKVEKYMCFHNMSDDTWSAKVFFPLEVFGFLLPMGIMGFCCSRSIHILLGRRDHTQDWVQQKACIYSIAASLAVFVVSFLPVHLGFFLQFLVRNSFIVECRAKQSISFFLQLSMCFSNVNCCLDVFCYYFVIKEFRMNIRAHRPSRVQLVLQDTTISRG

Hexokinase-1 = Hexokinase-1 (Homo sapiens, UniProt P19367); experiment: SAR analysis of small molecule inhibitors of hexokinase domain containing I (HKDC1) in the hexokinase 1 selectivity assay. [Related pubchem assays (depositor defined):AID493160, AID493190]; type: functional
Hexokinase-1, sequence (P19367 whole entry, the tested form may be a part): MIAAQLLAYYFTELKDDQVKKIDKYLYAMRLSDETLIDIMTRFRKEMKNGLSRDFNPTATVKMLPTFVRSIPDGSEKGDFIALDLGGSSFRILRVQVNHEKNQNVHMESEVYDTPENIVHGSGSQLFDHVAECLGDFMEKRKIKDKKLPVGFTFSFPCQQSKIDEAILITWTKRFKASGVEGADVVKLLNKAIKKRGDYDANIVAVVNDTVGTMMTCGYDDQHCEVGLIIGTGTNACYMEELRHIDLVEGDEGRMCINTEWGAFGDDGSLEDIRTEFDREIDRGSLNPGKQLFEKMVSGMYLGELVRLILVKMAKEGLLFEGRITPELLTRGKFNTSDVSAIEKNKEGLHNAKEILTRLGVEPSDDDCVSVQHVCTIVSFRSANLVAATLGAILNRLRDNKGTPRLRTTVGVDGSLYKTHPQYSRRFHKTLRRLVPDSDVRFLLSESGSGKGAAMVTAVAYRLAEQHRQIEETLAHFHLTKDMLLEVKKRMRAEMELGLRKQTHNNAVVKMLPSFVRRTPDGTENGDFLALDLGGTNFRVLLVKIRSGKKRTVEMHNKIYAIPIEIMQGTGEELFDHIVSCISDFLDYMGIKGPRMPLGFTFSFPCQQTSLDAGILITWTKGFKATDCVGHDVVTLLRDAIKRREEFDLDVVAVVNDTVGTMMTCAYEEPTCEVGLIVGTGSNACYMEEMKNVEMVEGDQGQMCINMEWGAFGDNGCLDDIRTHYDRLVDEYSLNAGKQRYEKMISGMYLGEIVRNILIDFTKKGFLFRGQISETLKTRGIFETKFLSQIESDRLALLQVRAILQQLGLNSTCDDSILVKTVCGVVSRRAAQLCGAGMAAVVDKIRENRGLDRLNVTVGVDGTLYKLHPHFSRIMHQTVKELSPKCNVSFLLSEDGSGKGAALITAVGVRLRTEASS

Jurkat = experiment: SAR Analysis of small molecule inhibitors of […] specific antigen receptor-induced NF-kB activation in a Jurkat cell line using a luminescence assay - Set 3. [Related pubchem assays (depositor defined):AID435022, AID435025, AID465]; type: functional, cell-based; settings: Homo sapiens
HEK293 [2] = experiment: SAR Analysis of small molecule inhibitors of B-cell specific antigen receptor-induced NF-kB activation in a HEK-293T cell line using a luminescence assay - Set 2. [Related pubchem assays (depositor defined):AID435022, AID435025, AID489021]; type: functional, cell-based; settings: Homo sapiens
HEK293 [3] = experiment: cytotoxicity in HEK293T NF-kB-Luc cells, SAR follow-up, cytotoxicity control for NF-kB activator project, cell-based, resazurin fluorescence (AID 493251); type: functional; settings: Homo sapiens
[4] = target: T2, Apoptotic protease-activating factor 1 (Homo sapiens, UniProt O14727); experiment: activation of Apaf-1 mediated apoptosis – fluorescent, uHTS hits, dose response (AID 588554); type: functional
T2 sequence (O14727 whole entry): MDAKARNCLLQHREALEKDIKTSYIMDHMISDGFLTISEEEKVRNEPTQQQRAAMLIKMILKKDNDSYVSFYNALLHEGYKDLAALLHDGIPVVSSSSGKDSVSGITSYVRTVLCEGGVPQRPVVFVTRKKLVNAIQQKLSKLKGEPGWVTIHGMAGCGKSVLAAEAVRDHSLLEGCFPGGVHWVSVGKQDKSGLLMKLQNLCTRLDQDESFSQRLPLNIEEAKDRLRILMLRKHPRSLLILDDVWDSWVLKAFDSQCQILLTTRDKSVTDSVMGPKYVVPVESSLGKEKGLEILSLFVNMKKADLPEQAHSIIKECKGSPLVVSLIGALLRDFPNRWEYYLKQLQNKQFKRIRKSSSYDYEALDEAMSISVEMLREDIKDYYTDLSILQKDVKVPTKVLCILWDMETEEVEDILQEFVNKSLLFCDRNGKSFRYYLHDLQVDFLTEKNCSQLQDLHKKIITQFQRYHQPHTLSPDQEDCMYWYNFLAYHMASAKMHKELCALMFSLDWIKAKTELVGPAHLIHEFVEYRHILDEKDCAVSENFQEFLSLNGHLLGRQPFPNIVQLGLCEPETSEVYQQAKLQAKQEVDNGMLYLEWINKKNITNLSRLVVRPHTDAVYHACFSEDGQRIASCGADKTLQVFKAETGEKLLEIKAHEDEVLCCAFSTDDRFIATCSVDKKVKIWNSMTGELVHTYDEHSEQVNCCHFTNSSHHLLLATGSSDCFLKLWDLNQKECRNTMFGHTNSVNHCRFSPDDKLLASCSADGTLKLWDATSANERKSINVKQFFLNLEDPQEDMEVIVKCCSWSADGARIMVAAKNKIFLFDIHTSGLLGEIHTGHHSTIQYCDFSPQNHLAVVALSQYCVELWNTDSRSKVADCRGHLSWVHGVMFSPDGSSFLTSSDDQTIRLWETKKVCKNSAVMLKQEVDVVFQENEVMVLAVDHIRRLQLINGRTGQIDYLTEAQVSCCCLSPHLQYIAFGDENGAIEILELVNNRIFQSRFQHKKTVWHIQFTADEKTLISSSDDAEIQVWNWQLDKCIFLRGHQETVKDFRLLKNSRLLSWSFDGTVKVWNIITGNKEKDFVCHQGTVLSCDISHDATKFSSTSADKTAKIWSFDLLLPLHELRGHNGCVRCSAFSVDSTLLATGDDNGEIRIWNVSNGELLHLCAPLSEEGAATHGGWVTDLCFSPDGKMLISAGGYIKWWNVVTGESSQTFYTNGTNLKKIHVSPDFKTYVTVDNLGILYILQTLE

Beta-galactosidase = Beta-galactosidase (Escherichia coli, UniProt Q8VNN2); experiment: PubChem AID 485352; type: functional
[5] = target: T3, Dual specificity protein phosphatase 6 (Rattus norvegicus, UniProt Q64346); experiment: MKP-3 phosphatase inhibitors, primary screen, biochemical, rat enzyme, in vitro (AID 425)
T3 sequence (Q64346 whole entry): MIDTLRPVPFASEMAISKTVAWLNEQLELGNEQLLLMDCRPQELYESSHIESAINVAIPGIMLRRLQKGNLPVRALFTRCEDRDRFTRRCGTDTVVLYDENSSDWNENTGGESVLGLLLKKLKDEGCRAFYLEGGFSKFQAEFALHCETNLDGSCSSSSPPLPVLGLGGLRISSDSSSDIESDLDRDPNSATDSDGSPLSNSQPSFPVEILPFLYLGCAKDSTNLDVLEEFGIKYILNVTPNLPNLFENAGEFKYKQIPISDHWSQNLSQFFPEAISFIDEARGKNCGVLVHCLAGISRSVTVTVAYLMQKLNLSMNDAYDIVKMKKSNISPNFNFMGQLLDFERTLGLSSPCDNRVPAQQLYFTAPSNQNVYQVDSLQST

[6] = target: T4, Voltage-gated N-type calcium channel alpha-1B subunit/Amyloid beta A4 precursor protein-binding family A member 1 (Homo sapiens, UniProt Q00975+Q02410); type: protein assay
T4 sequence (Q00975 whole entry): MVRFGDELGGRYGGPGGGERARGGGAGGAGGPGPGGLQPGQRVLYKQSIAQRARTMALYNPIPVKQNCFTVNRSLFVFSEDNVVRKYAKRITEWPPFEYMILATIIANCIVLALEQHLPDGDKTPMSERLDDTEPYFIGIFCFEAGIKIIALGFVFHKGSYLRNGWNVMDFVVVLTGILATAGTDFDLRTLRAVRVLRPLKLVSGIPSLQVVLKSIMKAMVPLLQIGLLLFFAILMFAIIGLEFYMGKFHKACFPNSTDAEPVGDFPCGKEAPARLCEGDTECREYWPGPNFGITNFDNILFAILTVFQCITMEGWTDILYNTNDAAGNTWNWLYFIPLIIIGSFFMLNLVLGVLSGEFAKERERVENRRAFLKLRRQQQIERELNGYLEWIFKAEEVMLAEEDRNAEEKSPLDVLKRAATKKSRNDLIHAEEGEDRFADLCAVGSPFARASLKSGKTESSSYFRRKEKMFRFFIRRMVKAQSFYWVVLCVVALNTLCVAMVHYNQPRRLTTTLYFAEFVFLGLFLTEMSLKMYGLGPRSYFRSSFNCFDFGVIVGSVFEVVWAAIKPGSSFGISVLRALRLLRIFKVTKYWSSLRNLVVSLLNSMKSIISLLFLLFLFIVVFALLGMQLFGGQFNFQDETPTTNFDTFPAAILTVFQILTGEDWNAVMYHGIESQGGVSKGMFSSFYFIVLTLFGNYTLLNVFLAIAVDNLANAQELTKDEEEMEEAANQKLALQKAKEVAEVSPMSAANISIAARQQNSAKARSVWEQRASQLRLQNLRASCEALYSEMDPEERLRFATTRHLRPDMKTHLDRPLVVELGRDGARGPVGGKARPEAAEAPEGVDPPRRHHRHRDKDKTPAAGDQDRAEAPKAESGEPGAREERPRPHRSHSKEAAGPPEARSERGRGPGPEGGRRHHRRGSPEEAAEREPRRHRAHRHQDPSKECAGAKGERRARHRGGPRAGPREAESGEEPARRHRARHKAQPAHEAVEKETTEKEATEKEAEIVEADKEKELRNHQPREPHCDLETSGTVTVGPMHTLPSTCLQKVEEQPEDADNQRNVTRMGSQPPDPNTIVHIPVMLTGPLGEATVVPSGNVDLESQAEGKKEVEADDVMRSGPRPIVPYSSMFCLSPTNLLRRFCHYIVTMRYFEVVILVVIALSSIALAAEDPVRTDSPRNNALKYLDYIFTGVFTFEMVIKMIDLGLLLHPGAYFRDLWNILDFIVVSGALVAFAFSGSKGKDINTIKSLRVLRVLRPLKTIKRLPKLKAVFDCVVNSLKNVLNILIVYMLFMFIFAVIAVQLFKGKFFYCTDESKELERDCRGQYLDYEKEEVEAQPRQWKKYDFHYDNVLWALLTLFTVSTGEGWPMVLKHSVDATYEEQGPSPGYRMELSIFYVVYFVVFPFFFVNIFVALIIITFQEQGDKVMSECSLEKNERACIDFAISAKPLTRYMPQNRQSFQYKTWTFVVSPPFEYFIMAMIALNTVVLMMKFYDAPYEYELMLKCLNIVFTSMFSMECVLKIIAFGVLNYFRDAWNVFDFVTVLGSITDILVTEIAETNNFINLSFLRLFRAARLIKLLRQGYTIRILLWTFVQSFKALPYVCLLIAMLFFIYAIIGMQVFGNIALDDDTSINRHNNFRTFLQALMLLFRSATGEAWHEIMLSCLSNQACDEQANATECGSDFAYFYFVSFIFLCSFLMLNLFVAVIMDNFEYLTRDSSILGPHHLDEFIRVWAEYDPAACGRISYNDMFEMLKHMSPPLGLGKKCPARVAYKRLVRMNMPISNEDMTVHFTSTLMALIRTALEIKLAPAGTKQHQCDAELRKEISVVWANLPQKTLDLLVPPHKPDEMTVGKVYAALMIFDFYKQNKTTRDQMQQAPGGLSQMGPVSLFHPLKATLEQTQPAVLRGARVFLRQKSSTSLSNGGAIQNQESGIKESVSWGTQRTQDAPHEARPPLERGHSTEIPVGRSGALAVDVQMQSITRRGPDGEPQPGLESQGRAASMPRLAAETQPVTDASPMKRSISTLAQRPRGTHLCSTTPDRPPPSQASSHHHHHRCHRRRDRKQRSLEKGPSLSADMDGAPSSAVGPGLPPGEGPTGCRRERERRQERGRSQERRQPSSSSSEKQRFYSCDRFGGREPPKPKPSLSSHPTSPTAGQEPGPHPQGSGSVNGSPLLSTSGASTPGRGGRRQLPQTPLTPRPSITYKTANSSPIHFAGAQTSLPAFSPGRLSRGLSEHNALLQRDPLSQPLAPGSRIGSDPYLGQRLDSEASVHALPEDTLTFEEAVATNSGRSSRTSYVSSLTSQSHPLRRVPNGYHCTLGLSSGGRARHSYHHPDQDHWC
T4 sequence (Q02410 whole entry): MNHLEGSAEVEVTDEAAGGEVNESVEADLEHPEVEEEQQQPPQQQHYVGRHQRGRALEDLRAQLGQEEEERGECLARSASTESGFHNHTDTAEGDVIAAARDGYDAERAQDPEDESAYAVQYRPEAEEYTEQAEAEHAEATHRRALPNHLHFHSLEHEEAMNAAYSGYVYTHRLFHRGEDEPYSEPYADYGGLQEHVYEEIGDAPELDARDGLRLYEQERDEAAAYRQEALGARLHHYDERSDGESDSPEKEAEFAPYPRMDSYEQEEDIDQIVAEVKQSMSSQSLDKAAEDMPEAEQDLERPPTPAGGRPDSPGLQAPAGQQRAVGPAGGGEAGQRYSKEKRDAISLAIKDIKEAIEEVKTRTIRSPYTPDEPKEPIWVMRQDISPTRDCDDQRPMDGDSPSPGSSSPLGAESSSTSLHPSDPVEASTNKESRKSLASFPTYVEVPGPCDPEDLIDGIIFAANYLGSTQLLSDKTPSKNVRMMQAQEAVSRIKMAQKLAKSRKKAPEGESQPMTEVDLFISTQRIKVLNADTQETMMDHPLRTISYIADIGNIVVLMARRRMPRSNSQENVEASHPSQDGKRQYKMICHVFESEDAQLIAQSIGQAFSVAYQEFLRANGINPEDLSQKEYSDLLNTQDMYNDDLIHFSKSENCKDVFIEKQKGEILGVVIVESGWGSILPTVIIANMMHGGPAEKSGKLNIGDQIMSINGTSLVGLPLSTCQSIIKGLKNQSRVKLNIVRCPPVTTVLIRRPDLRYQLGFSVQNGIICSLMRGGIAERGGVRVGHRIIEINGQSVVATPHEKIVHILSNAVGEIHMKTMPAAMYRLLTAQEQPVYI

[7] = target: Eukaryotic translation initiation factor 4E (Mus musculus, UniProt P63073); experiment: eIF4E–eIF4G protein interaction inhibitors, dose response, biochemical, TR-FRET (AID 855); type: functional;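 also: potency for disrupting eIF4E binding to eIF4GI seen as loss of FRET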
Eukaryotic translation initiation factor 4E, sequence (P63073 whole entry): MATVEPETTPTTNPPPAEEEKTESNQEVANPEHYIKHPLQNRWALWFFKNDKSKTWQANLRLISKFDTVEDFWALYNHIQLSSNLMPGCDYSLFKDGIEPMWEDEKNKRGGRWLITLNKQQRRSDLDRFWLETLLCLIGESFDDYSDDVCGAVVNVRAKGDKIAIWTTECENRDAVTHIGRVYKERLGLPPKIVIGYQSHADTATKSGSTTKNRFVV

[8] = target: Eukaryotic translation initiation factor 4H (Homo sapiens, UniProt Q15056); experiment: human eIF4H binding inhibitors, primary screen, translation initiation inhibitor project, biochemical, uHTS, fluorescence polarization (AID 2012)
[9] = target: T5, Type-1 angiotensin II receptor (Homo sapiens, UniProt P30556); experiment: AT1 receptor antagonists, dose response, selectivity assay for APJ receptor antagonist project, cell-based, uHTS hits (AID 463214); type: functional;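 also: antagonist potency against angiotensin II stimulated AT1 response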
T5 sequence (P30556 whole entry): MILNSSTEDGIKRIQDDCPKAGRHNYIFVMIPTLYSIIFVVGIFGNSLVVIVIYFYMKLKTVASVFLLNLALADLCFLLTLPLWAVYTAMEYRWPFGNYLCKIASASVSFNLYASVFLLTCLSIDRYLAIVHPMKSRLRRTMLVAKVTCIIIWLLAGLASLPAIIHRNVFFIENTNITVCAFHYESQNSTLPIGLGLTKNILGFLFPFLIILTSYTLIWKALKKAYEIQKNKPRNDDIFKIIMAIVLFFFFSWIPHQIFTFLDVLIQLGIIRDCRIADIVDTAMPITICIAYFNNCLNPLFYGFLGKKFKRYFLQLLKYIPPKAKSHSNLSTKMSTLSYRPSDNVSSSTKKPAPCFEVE

[10] = target: T6, Dual specificity protein phosphatase 3 (Homo sapiens, UniProt P51452); experiment: VHR1 phosphatase inhibitors, primary screen, biochemical, absorbance, uHTS (AID 1654)
T6 sequence (P51452 whole entry): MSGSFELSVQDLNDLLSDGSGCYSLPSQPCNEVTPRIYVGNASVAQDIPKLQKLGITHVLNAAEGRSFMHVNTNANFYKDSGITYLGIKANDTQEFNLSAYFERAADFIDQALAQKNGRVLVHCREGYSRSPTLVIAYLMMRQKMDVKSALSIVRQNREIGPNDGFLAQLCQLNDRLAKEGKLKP

[11] = target: T6, Dual specificity protein phosphatase 3; experiment: VHR1 phosphatase inhibitors, biochemical (AID 1878)
[12] = target: Polyadenylate-binding protein 1 (Homo sapiens, UniProt P11940); experiment: PABP poly(A) RNA binding inhibitors, primary screen, biochemical, fluorescence polarization, uHTS (AID 2014)
[13] = target: T4, Voltage-gated N-type calcium channel alpha-1B subunit/Amyloid beta A4 precursor protein-binding family A member 1; type: protein assay; remark: listed apart in the source
[14] = target: Beta-2 adrenergic receptor (Homo sapiens, UniProt P07550); experiment: beta2AR agonists driving receptor internalization, dose response, cell-based, FAP fluorogen, flow cytometry, cherry pick 1 (AID 588763); type: functional
Candida albicans [15] = experiment: fluconazole resistance reversal in C. albicans, dose response, CaCi-2 strain, Alamar Blue, dry powder, set 4 (AID 488943); type: functional, organism-based
Candida albicans [16] = experiment: growth inhibition of resistant C. albicans, dose response, CaCi-8, fluconazole, Alamar Blue, dry powder (AID 488807); type: functional, organism-based
Candida albicans [17] = experiment: single-agent growth inhibition of C. albicans, dose response, counter-screen for antifungal drug resistance project, C. albicans CaCi-2, dry powder (AID 488802); type: functional, organism-based
Candida albicans [18] = experiment: growth inhibition of resistant C. albicans, dose response, CaCi-8 strain, fluconazole, dry powder, set 4 (AID 488950); type: functional, organism-based

Cc1ccc(S(=O)(=O)N2CCOCC2)cc1NC(=O)CSc1nnc2cc(C)c3ccccc3n12
IC50 (Hexokinase HKDC1): 43.2 µM (inactive) | EC50 [1]: 17.4 µM (inactive) | IC50 (Hexokinase-1): 50.3 µM (inactive)

COc1ccccc1NC(=O)CCc1nc(-c2ccc(C(C)(C)C)cc2)no1
IC50 (Jurkat): 0.665 µM (active) | IC50 (HEK293 [2]): 0.44 µM (active) | IC50 (HEK293 [3]): 56 µM (inactive)

COc1cc(/C=C2\SC(=O)N(c3cccc(Cl)c3)C2=O)cc([N+](=O)[O-])c1O
EC50 [4]: 5.8 µM (active) | EC50 (Beta-galactosidase): 30.8 µM (active) | IC50 [5]: > 158 µM (not active) | IC50 [6]: > 50 µM (inactive) | IC50 [7]: 21.9 µM (active) | IC50 [8]: 4.99 µM (active) | IC50 [9]: 27.3 µM (not active) | IC50 [10]: 3.03 µM (active) | IC50 [11]: 2.21 µM (active) | IC50 [12]: > 100 µM (inactive) | IC50 [13]: 3.5 µM (active)

CCCCN(C(=O)c1ccc(NC(=O)C(C)C)cc1)c1ccccc1
EC50 [14]: 0.049 µM (active)

Cc1ccc(C(=O)N2CCN(c3ccnc4cc(Cl)ccc34)CC2)cc1
AC50 (Candida albicans [15]): 1.78 µM (active) | AC50 (Candida albicans [16]): 7.07 µM (active) | AC50 (Candida albicans [17]): 31.8 µM (active) | AC50 (Candida albicans [18]): 1.33 µM (active)
